This data set relates to mice marrow cells.

Description: The study objective was detection and quantitative estimate of cytogenetic (mutagenic) activity of pharmacologic substances in polychromatophil cells (PCC) of mammal marrow. The method is based on microscopic recording of cells with micronuclei.
The experiments were performed to 2 months old male and female F1 (CBAx C57BI6/J) cross-breed mice weighing 18-20 g. Each group included 6 animals. The animals were kept at 12 hours light pattern with free food and water access. […] Three sessions of experiments were carried out with corresponding controls: therapeutic dose was tested on male animals with a single introduction; subtoxic dose was tested on male animals with a single introduction; therapeutic dose was tested on male animals with a single introduction; subtoxic dose was tested on male animals and female with five-time introduction.
Seven animal groups were formed: four experimental groups and three corresponding reference groups. The substance in the amount of 0.1 mg/kg was introduced five times at 24 hours interval to males and females. All animals were sacrificed 6 hours upon the last introduction of the protein/polypeptide complex.
In two other experimental groups, the protein/polypeptide complex was introduced in single dosing to males in doses of 0.2 mg/kg and 0.5 mg/kg.
Normal saline solvent was used as a negative control. It was introduced intraperitoneally to male and female mice of two reference groups for the same period and in the same amount as to the experimental animals.
Marrow cell preparations for micronuclei count were made by a standard method in compliance with guidelines [formula] […] The animals were sacrificed through cervical dislocation 6 hours after the last introduction. Both thigh bones were detached and muscles were removed from them. In order to wash out the marrow, fetal calf serum was used (produced by NPP PanEko). The marrow from both thigh bones was washed out into a microtube using a syringe. […] 2,000 polychromatophil cells from each animal were analyzed in encoded preparations.

For the compound `O=P1(N(CCCl)CCCl)NCCCO1` (stereo not drawn) [Cyclophosphamide, cyclophosphamide], the “polychromatophilic to normochromatic erythrocytes ratio” value (20 mg/kg, compared to control P<0.005) was “shift to the latter”. The “increased frequency of micronucleus cells” value (male mice, 20 mg/kg intraperitoneally, versus reference, P<0.001) was found to be 19.6 times. The “frequency of micronucleus cells” value (male mice, 20 mg/kg intraperitoneally, 3.16 % in reference) turned out to be 62.1%.
